What was measured:
[1] = test system: mucous membrane of nasal passages, formalin-induced acute rhinosinusitis; assay: Acute rhinosinusitis rat model (induced by intranasal 7.5% formalin solution); assay type: in vivo, Wistar rats; settings: rats
Method: Morphological studies of histologic preparations were conducted with a Leica DMLS light-optical microscope (Leica Microsystems, Germany). Micro-morphometric assessment was performed by using an ocular micrometer on a Leica DMLB microscope.
Acute rhinosinusitis was induced by intranasal administration of 20 μl of 7.5% formalin solution (aqueous solution comprising 40% formaldehyde, 8% methyl alcohol, and 52% water) to each nasal passage of rats.
Administration of formalin to rat nasal passages leads to the dissemination of inflammation to adjacent tissues, resulting in a clinical pattern similar to the symptoms of rhinosinusitis in a human.
After an acclimatization period, the following groups were formed: • intact animals administered intragastrically a saline solution in an amount of 0.2 ml, the induction of acute rhinosinusitis was not performed; • a control group consisted of the animals administered intragastrically a saline solution in an amount of 0.2 ml for 7 days after induction of acute rhinosinusitis; • animals administered intramuscularly dexamethasone at a dose of 0.33 mg/kg for 7 days after induction of acute rhinosinusitis; and • animals administered the tested compounds at a dose of 27 mg/kg for 7 days after induction of acute rhinosinusitis.
Clinical observation of each animal was performed every day at least twice daily.
In the experiment with Wistar rats, the induction of acute rhinosinusitis by administration of a 7.5% formalin solution to nasal passages caused in the control group of animals pronounced pathological changes characterizing the development of an acute inflammation process in the nasal mucous. The caused pathology was characterized by congestion, hyperplasia, focal necrosis of the nasal meatus mucous membrane, an increased number of caliciform cells, pronounced infiltration by mononuclear cells and leucocytes, and mucus hyperproduction by submucosal glands.
The mucous and submucous membranes of both nasal passages (respiratory and olfactory regions) of the experimental animals were subjected to a morphological analysis to evaluate a specific activity of the compounds.
For microscopic examination, the sections were stained with hematoxylin and eosin. Detection of acid mukopolysaccharides, the production of which is increased in an inflammation, was performed by histochemical staining of the preparation with Alcian Blue (pH 2.5). The comparison and histological evaluation of changes were performed versus the group of intact rats.
After slaughter, the gross appearance of inflammation in the nasal passages was studied in each animal. Histological, hystochemical and morphological studies of rats were intended to evaluate the following characteristics of nasal passages: congestion of the mucous membrane; hyperplasia and necrosis of nasal epithelium, the number of caliciform cells within 1 mm of the mucous membrane of the nasal septum, and the character of inflammation.
In this study, the efficiency of the mucociliary system was evaluated by the number of caliciform cells and, as a consequence, microscopic changes in the mucous membrane of the nasal passages.

[2] = test system: hRV strain (GKV reg. No. 2730); assay: Antiviral activity against rhinovirus in mice (body weight, lung weight, infectious titer in lungs); assay type: in vivo
[3] = test system: influenza virus strain A/California/07/09 (H1N1) pdm09; assay: animal or person; assay type: in vivo, white outbred female mice; settings: unidentified influenza virus, H1N1, in Mus musculus, po, 336 h, read-out: Mortality rate, %
[4] = test system: human respiratory syncytial virus (strain A2, ATCC VR-1540); assay type: in vivo; settings: Balb/c mice, cyclophosphan 100 mg/kg 5 days before infection; 30 mg/kg once daily for 5 days from 24 h; score from possible 4; M ± SD, n = 5
[5] = tested compounds 27 mg/kg for 7 days, count out of n of the group
[6] = 30 mg/kg orally once daily, day 2 after infection
[7] = 30 mg/kg orally once daily, day 3 after infection
[8] = 30 mg/kg orally once daily, day 4 after infection
[9] = 30 mg/kg orally, difference control minus experimental group
[10] = 30 mg/kg orally, lung suspension titrated in Hela cell culture

SMILES: O=C1CCCC(=O)N1CCc1cnc[nH]1 [Compound 1, 1-(2-(1H-imidazol-4-yl)ethyl)piperidine-2,6-dione]
- The number of caliciform cells within 1 mm of the mucous membrane of the nasal septum ([1]; tested compounds 27 mg/kg for 7 days after induction, M ± m): 31.2 ± 1.2
- Macroscopic changes in the mucous membrane of nasal passages: Muculent or mucopurulent catarrh (number of animals) [1, 5]: 13
- Macroscopic changes in the mucous membrane of nasal passages: Without changes (number of animals) [1, 5]: 5
- Body weight of the mice after infection with hRV, day 0 ([2]; 30 mg/kg orally once daily for 5 days starting 12 hours after infection, day 0): 7.36 ± 0.97
- Body weight of the mice after infection with hRV, day 1 ([2]; 30 mg/kg orally once daily, day 1 after infection): 8.2 ± 4.25
- Body weight of the mice after infection with hRV, day 2 [2, 6]: 13.03 ± 3.51
- Lung weight of the mice after infection with hRV, day 2 [2, 6]: 136.9 ± 5.93
- Body weight of the mice after infection with hRV, day 3 [2, 7]: 13.47 ± 1.36
- Lung weight of the mice after infection with hRV, day 3 [2, 7]: 140.8 ± 5.14
- Body weight of the mice after infection with hRV, day 4 [2, 8]: 13.99 ± 1.53
- Lung weight of the mice after infection with hRV, day 4 [2, 8]: 128.2 ± 5.81
- Suppression of the reproduction of the virus in mouse lungs, Δ lg, Day 2 after infection [2, 9]: 1.1 ± 0.49 Δ lg
- Suppression of the reproduction of the virus in mouse lungs, Δ lg, Day 3 after infection [2, 9]: 1.7 ± 0.31 Δ lg
- Suppression of the reproduction of the virus in mouse lungs, Δ lg, Day 4 after infection [2, 9]: 2.18 ± 0.08 Δ lg
- Infectious titer of the virus in lungs, lg TCID50, Day 2 after infection [2, 10]: 2.9 ± 0.49 lg TCID50
- Infectious titer of the virus in lungs, lg TCID50, Day 3 after infection [2, 10]: 0.8 ± 0.31 lg TCID50
- Infectious titer of the virus in lungs, lg TCID50, Day 4 after infection [2, 10]: 0.03 ± 0.08 lg TCID50
- mortality at 30 mg/kg [3]: 35%
- Degree of pulmonary edema on day 5 after infection, score [4]: 1.3 ± 0.27 score

Reference: US10155743B2, “Glutarimide derivatives, use thereof, pharmaceutical composition based thereon and methods for producing glutarimide derivatives” (OBSCHESTVO S OGRANICHENNOI OTVETSTVENNOSTIYU …, priority 2013, dated 2018)
